Values quoted from earlier work in patent US10590413B2, “Chiral control” (WAVE LIFE SCIENCES LTD., priority 2012, dated 2020).
Like-named read-outs stand apart in the source and are kept apart here. [Rp] = phosphorothioate linkage, Rp; [5mC] = 5-methylcytosine

Key:
[1] = tested on: Murine IL-6 production and B cell activation; conditions: cited from earlier work; for IL-6 (pg/ml) CH12.LX: CH12.LX cells; for SI (stimulation index, [3H] uridine uptake, fold increase from unstimulated control): cells stimulated with 20 μM CpG O-ODN; for SI (stimulation index, [3H] uridine uptake, fold increase from unstimulated control) / SI (stimulation index, [3H] uridine uptake): mean ± SD of triplicates; for SI (stimulation index, [3H] uridine uptake): fold increase from unstimulated control, 20 μM CpG O-ODN; for IgM: measured by ELISA, unstimulated culture 547 ± 82 ng/ml; for IL-6 (pg/ml) SPLENIC B CELL: splenic B cells
human PBMC = conditions: cited from earlier work
Mouse B Cells = conditions: mean and std. dev. of at least 3 experiments, compared to wells with no added ODN, cited from earlier work
[2] = unstimulated control ≤10 pg/ml, US 6,239,116 Table 2
[3] = ODN 12 μg/ml, 4 hr, 10% autologous serum, level above wells with no ODN, ELISA
[4] = ODN 12 μg/ml, 24 hr, 10% autologous serum, level above wells with no ODN, ELISA

Substance | Stimulation Index, 3H Uridine (Mouse B Cells; US 6,239,116 Table 1) | Stimulation Index, IgM Production (Mouse B Cells; US 6,239,116 Table 1) | Stimulation Index, 3H Uridine (Mouse B Cells) | also measured
1636 (DNA TCCATGTCGATCCTGATGCT; chemistry not given here) [Oligonucleotide 1636] | – | – | – | IL-6 (pg/ml) CH12.LX [1]: 1181 ± 76 pg/mL; IL-6 (pg/ml) CH12.LX [1, 2]: 1181 ± 76 pg/mL; SI (stimulation index, [3H] uridine uptake, fold increase from unstimulated control) [1]: 5.4 ± 0.4; SI (stimulation index, [3H] uridine uptake) [1]: 5.4 ± 0.4; IgM [1]: 3983 ± 485 ng/mL; IL-6 (pg/ml) SPLENIC B CELL [1]: 947 ± 132 pg/mL; IL-6 (pg/ml) SPLENIC B CELL [1, 2]: 947 ± 132 pg/mL; TNF-α (human PBMC; [3]): 250 pg/mL; GM-CSF (human PBMC; [4]): 40 pg/mL; IFN-γ (human PBMC; [4]): 35 pg/mL; IL-6 (human PBMC; [4]): 325 pg/mL; IL-12 (human PBMC; [4]): 250 pg/mL; GM-CSF (human PBMC): 40; IFN-γ (human PBMC): 35; IL-6 (human PBMC): 325; IL-12 (human PBMC): 0; TNF-α (human PBMC): 250
3Me (DNA TCCATGTCGGTCCTGCTGAT; chemistry not given here) [Oligonucleotide 3Me] | 3.6 ± 0.2 | 14.2 ± 5.2 | 3.6 ± 0.2 | –
1b (DNA GCTAGACGTTAGCGT; Z modified cytosine, further chemistry not given here) [Oligonucleotide 1b] | 1.2 ± 0.1 | 1.8 ± 0.0 | 1.2 ± 0.1 | –
1615 (DNA TCCATGGCGGTCCTGATGCT; chemistry not given here) [Oligonucleotide 1615] | – | – | – | IL-6 (pg/ml) CH12.LX [1]: 1201 ± 155 pg/mL; IL-6 (pg/ml) CH12.LX [1, 2]: 1201 ± 155 pg/mL; SI (stimulation index, [3H] uridine uptake, fold increase from unstimulated control) [1]: 3.7 ± 0.3; SI (stimulation index, [3H] uridine uptake) [1]: 3.7 ± 0.3; IgM [1]: 3212 ± 617 ng/mL; IL-6 (pg/ml) SPLENIC B CELL [1]: 850 ± 202 pg/mL; IL-6 (pg/ml) SPLENIC B CELL [1, 2]: 850 ± 202 pg/mL; TNF-α (human PBMC; [3]): 145 pg/mL; GM-CSF (human PBMC; [4]): 45 pg/mL; IFN-γ (human PBMC; [4]): 7.8 pg/mL; IL-6 (human PBMC; [4]): 600 pg/mL; IL-12 (human PBMC; [4]): 145 pg/mL; GM-CSF (human PBMC): 45; IFN-γ (human PBMC): 7.8; IL-6 (human PBMC): 600; IL-12 (human PBMC): 250; TNF-α (human PBMC): 145
3Ma (DNA TCCATGCTGGTCCTGATGCT; chemistry not fully specified) [Oligonucleotide 3Ma] | 0.9 ± 0.1 | 1.8 ± 0.5 | 0.9 ± 0.1 | –
1d (DNA GCATGACGTTGAGCT; DNA, backbone not given here; further chemistry not fully specified) [Oligonucleotide 1d] | 13.0 ± 2.3 | 18.3 ± 7.5 | 13.0 ± 2.3 | –
1707 (DNA TCCATGACGTCCCTGATGCT; chemistry not given here) [Oligonucleotide 1707] | – | – | – | SI (stimulation index, [3H] uridine uptake, fold increase from unstimulated control) [1]: 4.0 ± 0.2; SI (stimulation index, [3H] uridine uptake) [1]: 4.0 ± 0.2; IgM [1]: 3534 ± 217 ng/mL; IL-6 (pg/ml) SPLENIC B CELL [1]: 1147 ± 175 pg/mL; IL-6 (pg/ml) SPLENIC B CELL [1, 2]: 1147 ± 175 pg/mL; TNF-α (human PBMC; [3]): 70 pg/mL; GM-CSF (human PBMC; [4]): 0 pg/mL; IFN-γ (human PBMC; [4]): 17 pg/mL; IL-6 (human PBMC; [4]): 300 pg/mL; IL-12 (human PBMC; [4]): 70 pg/mL; GM-CSF (human PBMC): 0; IFN-γ (human PBMC): 17; IL-6 (human PBMC): 300; IL-12 (human PBMC): 0; TNF-α (human PBMC): 70
3Df (DNA GAGAACGATGGACCTTCCAT; chemistry not fully specified) [Oligonucleotide 3Df] | 1.6 ± 0.1 | 7.7 ± 0.4 | 1.6 ± 0.1 | –
1c (DNA GCTAGACGTTAGCGT; chemistry not fully specified) [Oligonucleotide 1c] | 10.3 ± 4.4 | 9.5 ± 1.8 | 10.3 ± 4.4 | –
2d (DNA ATCGACTCTCGAGCGTTCTC; DNA, [5mC] at 18, backbone not given here) [Oligonucleotide 2d] | 7.4 ± 1.4 | 27.7 ± 5.4 | 7.4 ± 1.4 | –
4f (DNA CCAACGTT; chemistry not fully specified) [Oligonucleotide 4f] | 3.9 ± 1.4 | – | 3.9 ± 1.4 | –
All-(Rp)-d[GsCsCsTsCsAsGsTsCsTsGsCsTsTsCsGsCsAsCsC] (DNA GCCTCAGTCTGCTTCGCACC; DNA, all [Rp], methylation of C not given here) [Oligonucleotide 101] | 2.9 ± 0.2 | 13.6 ± 2.0 | 2.9 ± 0.2 | –
3Md (DNA TCCATGACGTTCCTGATGCT; chemistry not given here) [Oligonucleotide 3Md] | 17.2 ± 9.4 | – | 17.2 ± 9.4 | –
3Mc (DNA TCCATGTCGGTCCTGATGCT; Z modified cytosine, further chemistry not given here) [Oligonucleotide 3Mc] | 5.4 ± 1.5 | 8.5 ± 2.6 | 5.4 ± 1.5 | –
4d (DNA TCTTCGAA; chemistry not fully specified) [Oligonucleotide 4d] | 1.3 ± 0.2 | – | 1.3 ± 0.2 | –
3Dg (DNA GAGAACGCTCCAGCACTGAT; chemistry not fully specified) [Oligonucleotide 3Dg] | 6.1 ± 1.5 | 18.6 ± 1.5 | 6.1 ± 1.5 | –
4c (DNA TCATCGAT; chemistry not given here) [Oligonucleotide 4c] | 2.7 ± 1.0 | – | 2.7 ± 1.0 | –
4g (DNA AACGTTCT; chemistry not given here) [Oligonucleotide 4g] | 1.4 ± 0.3 | – | 1.4 ± 0.3 | –
4e (DNA CAACGTT; chemistry not fully specified) [Oligonucleotide 4e] | 1.3 ± 0.2 | 1.1 ± 0.5 | 1.3 ± 0.2 | –
3D (DNA GAGAACGCTGGACCTTCCAT; chemistry not fully specified) [Oligonucleotide 3D] | 4.9 ± 0.5 | 19.9 ± 3.6 | 4.9 ± 0.5 | –
4b (DNA TCAGCGCT; chemistry not fully specified) [Oligonucleotide 4b] | 4.5 ± 0.2 | 9.6 ± 3.4 | 4.5 ± 0.2 | –
2c (DNA ATCGACTCTCGAGCGTTCTC; chemistry not fully specified) [Oligonucleotide 2c] | 3.1 ± 0.6 | 7.3 ± 1.4 | 3.1 ± 0.6 | –
4h (DNA TCAACGTC; chemistry not fully specified) [Oligonucleotide 4h] | 1.2 ± 0.2 | – | 1.2 ± 0.2 | –
3Db (DNA GAGAACGCTCGACCTTCGAT; chemistry not fully specified) [Oligonucleotide 3Db] | 10.1 ± 2.8 | 25.4 ± 0.8 | 10.1 ± 2.8 | –
3Dc (DNA GAGCAAGCTGGACCTTCCAT; chemistry not fully specified) [Oligonucleotide 3Dc] | 1.0 ± 0.1 | 1.2 ± 0.5 | 1.0 ± 0.1 | –
